In general, half-life refers to the time needed for the level to fall by half in the phase considered. Read a high half-life as slow decline.

The text below walks through data of patent publication US20090252834A1, “Compositions comprising glucose anti-metabolites” (priority 2004, published 2009).

The test system of one data set is mice. Nature of the data set: Mice fed a diet containing mannoheptulose. The format is in vivo. The text has this: (§1) Both of these endpoints are closely related to altered glucose and/or carbohydrate metabolism, similar to that elicited by dietary caloric restriction.
Data set [1] has as its system fruit flies and/or nematodes. Nature of the data set: Lifespan of fruit flies and/or nematodes fed mannoheptulose. The format is in vivo.
Excerpt: as §1

A short description of data set [2]: Pharmacokinetics of mannoheptulose, twice daily in a nutritionally-balanced composition, older Labrador Retrievers. The class given is in vivo, Labrador Retriever dogs. As to conditions: 2 mg/kg; for half-life: female, Labrador Retriever, dog, plasma, oral. How it is done: The pharmacokinetics of mannoheptulose can be determined in ten adult, female Labrador Retriever dogs fed a nutritionally-balanced composition providing mannoheptulose at levels of 0 or 2 mg/kg of body weight of the dog. Mannoheptulose is provided as avocado extract in the 2 mg/kg diet. The mean age of the dogs is 7.1 years and the age ranges from 5.3 to 8.4 years. Dogs are age-matched across the two composition groups. The average body weight of all dogs is 29 kg and ranges from 25 to 35 kg. The 0 mg/kg composition is fed as a nutritionally-balanced control composition (Eukanuba Senior Maintenance Formula) and it contains no mannoheptulose, avocado extract or avocado meal. The 2 mg/kg composition is the nutritionally-balanced control composition formulated to contain avocado extract to provide mannoheptulose at a dose of 2 mg/kg of body weight of the dog. The amount of composition offered to the dogs is based on feeding guidelines for the control composition and the target weight range and body condition of the dogs. Dogs are fed one-half their daily allotment of composition at 0730 and the remaining half at 1330. Dogs 1, 2, 3, 4 and 5 are fed the composition containing 2 mg/kg mannoheptulose and dogs 6, 7, 8, 9 and 10 are fed the composition containing 0 mg/kg mannoheptulose. Pharmacokinetics of mannoheptulose following twice daily administration of mannoheptulose in a nutritionally-balanced composition is determined by collecting serial blood samples (3 mL) from each dog using a Vacutainer blood collection system and jugular venipuncture. […] Plasma mannoheptulose concentrations are measured using high-performance liquid chromatography tandem mass spectrometry as described herein below.
A one-compartment model is used to calculate mannoheptulose pharmacokinetics based on plasma mannoheptulose levels following twice daily oral administration of mannoheptulose in a nutritionally-balanced composition (PV(t)). The model is: PV(t)=dose/(a·BW)e^−kt where: a=mannoheptulose pool size (dose/(enrichment at to)), BW=body weight, k=rate constant of elimination (In Et−1n E0)/−t, and t=time.
High performance liquid chromatography tandem mass spectrometry (HPLC/MS/MS) is utilized to determine the amount of mannoheptulose present in the plasma of adult dogs. D-mannoheptulose and its chemical analog internal standard (D7-glucose) are isolated from dog plasma by a protein precipitation procedure (described herein below) using a 96-well format. The analyte and internal standard are subjected to reverse-phase high performance liquid chromatographic (HPLC) analysis on a polymeric amino column (2.1×150 mm, 5-μm particles). Detection and quantitation is by mass spectrometry (MS) operating under multiple reaction monitoring MS/MS conditions. Concentrations of D-mannoheptulose in dog plasma can be quantitated from approximately 20 to 5000 ng/mL. The assay requires a 0.1 mL aliquot of dog plasma harvested from a Na2EDTA anti-coagulant blood collection tube. Specimen concentrations are determined by back-calculation using a weighted (1/x^2) linear regression of a calibration curve generated from prepared D-mannoheptulose calibration standards.

For data set [3] the following is noted: cited from earlier work.
The conditions of data set [4]: rats, cited from earlier work.
Where [5] appears, read: twice daily, after the afternoon meal.
The mark [6] stands for this setting: twice daily, after the morning meal.

Consider `O=C(CO)[C@@H](O)[C@@H](O)[C@H](O)[C@H](O)CO` [mannoheptulose], for which, in the data set on mice, the body weight result is recorded as “slightly reduced body weight” and the plasma insulin levels result is given as “reduced plasma insulin levels”. This compound showed a lifespan extension in data set [1] of roughly 50%. In data set [2] (setting [5]), the half-life is 5.63 h and the turnover time worked out at 3.90 h. Also, in data set [2] (setting [6]), the half-life was 5.42 h and the turnover time amounted to 7.8 h. Also, in data set [2] (twice daily oral), the “order of plasma kinetics” value is “first order kinetics”. Also, the “return of plasma mannoheptulose to undetectable levels” value in data set [2] (twice daily) is given as “by the following morning”. Besides, the “time to second peak in plasma mannoheptulose after afternoon meal” value in data set [2] (twice daily, afternoon meal) turned out to be 4 h. The “time to peak plasma mannoheptulose levels after initial feeding” value in data set [2] (twice daily, morning meal) amounted to 4 h. For the same compound, the “mannoheptulose ingested appearing in urine” value in data set [3] (after oral administration) is “About 5%”. Besides, the “safety of oral administration” value in data set [3] (humans, doses of 10 grams, orally) is “safely administered”. Besides, the “injected mannoheptulose remained in the body” value in data set [4] (a day after the injection) is listed as 5%. Besides, in data set [4] (injection), the “injected mannoheptulose excreted unchanged” value was 66% and the injected mannoheptulose metabolized is 29%.
